Laboratory results reported in US11622991B2, “Protocol for treatment of lupus nephritis” (Aurinia Pharmaceuticals Inc., priority 2017, dated 2023).
Where two headings read alike, the source gives them in different places.

Experiments:
[1] = test system: lupus nephritis; assay: Predictability of week 48 partial remission from early C3/C4 normalization (Table 12); type: in vivo, human
Excerpt: (§1) PR is defined as at least 50% reduction in proteinuria (i.e. UPCR).
(§2) Sensitivity is defined as the probability that a subject showing PR at 48 weeks would have shown a favorable result with regard to the marker at the designated early time point. In the tables below, this is the ratio of the number of subjects with favorable marker results (early drop or normalization) to the total subjects with 48 week PR.
(§3) Specificity is defined as the probability that a subject not showing PR at 48 weeks would have shown an unfavorable result with regard to the marker at the designated early time point. In the tables below, this is the ratio of the number of subjects with unfavorable marker results (no early drop or no normalization) to the total subjects with no 48 week PR.
(§4) Positive predictive value is defined as the probability that a subject showing a favorable result with respect to the marker at an earlier time point would show PR at 48 weeks. In the tables below, this is the ratio of the number of subjects with favorable marker results who have 48 week PR to those with favorable marker results (early reduction or yes column).
(§5) Negative predictive value is defined as the probability that a subject showing an unfavorable result with respect to the marker at an earlier time point would not show PR at 48 weeks. In the tables below, this is the ratio of the number of subjects with unfavorable marker results who have no PR at 48 weeks to the total subjects with unfavorable marker results (no early reduction or no column).
(§6) Another criterion for effectiveness is normalization of C3 and/or C4 concentration in blood. The normal concentration of C3 is 90 mg/dl or greater and for C4 16 mg/dl or greater.

[2] = test system: lupus nephritis; assay: Predictability of week 48 partial remission from early C3 normalization (Table 10); type: in vivo, human
Excerpt: as §1, §2, §3, §4, §5, §6

[3] = test system: lupus nephritis; details: cited from earlier work
[4] = test system: lupus nephritis; assay: Predictability from early reduction in UPCR or C3/C4 normalization combined at 12 weeks (Tables 13-17); type: in vivo, human; details: number of patients
Excerpt: as §1, §2, §3, §4
as §5, with “column). […]” for “column).”

[5] = Early 25% reduction in UPCR or C3/C4 normalization, Week 12, 23.7 mg BID
[6] = Early 25% reduction in UPCR or C3/C4 normalization, Week 12, 39.5 mg BID
[7] = Early 25% reduction in UPCR or C3/C4 normalization, Week 24, 23.7 mg BID
[8] = Early 25% reduction in UPCR or C3/C4 normalization, Week 48, 23.7 mg BID
[9] = Early 30% reduction in UPCR or C3/C4 normalization, Week 12, 23.7 mg BID
[10] = Early 30% reduction in UPCR or C3/C4 normalization, Week 12, 39.5 mg BID
[11] = Early 30% reduction in UPCR or C3/C4 normalization, Week 24, 23.7 mg BID
[12] = Early 30% reduction in UPCR or C3/C4 normalization, Week 48, 23.7 mg BID

C=C/C=C/C[C@@H](C)[C@@H](O)[C@H]1C(=O)N[C@@H](CC)C(=O)N(C)CC(=O)N(C)[C@@H](CC(C)C)C(=O)N[C@@H](C(C)C)C(=O)N(C)[C@@H](CC(C)C)C(=O)N[C@@H](C)C(=O)N[C@H](C)C(=O)N(C)[C@@H](CC(C)C)C(=O)N(C)[C@@H](CC(C)C)C(=O)N(C)[C@@H](C(C)C)C(=O)N1C [voclosporin]
Normalization Yes ([1]; week 12, 23.7 mg BID): 26
No Week 48 Partial Remission No Normalization ([1]; week 12, 39.5 mg BID): 10
No Week 48 Partial Remission Normalization ([1]; week 12, 39.5 mg BID): 7
Week 48 Partial Remission No Normalization ([1]; week 12, 39.5 mg BID): 33
Week 48 Partial Remission Normalization ([1]; week 12, 39.5 mg BID): 29
No Week 48 Partial Remission No Normalization ([1]; week 24, 23.7 mg BID): 10
No Week 48 Partial Remission Normalization ([1]; week 24, 23.7 mg BID): 4
Normalization Yes ([1]; week 24, 23.7 mg BID): 27
Normalization Yes ([1]; week 24, 39.5 mg BID): 31
No Week 48 Partial Remission No Normalization ([1]; week 48, 23.7 mg BID): 8
No Week 48 Partial Remission Normalization ([1]; week 48, 23.7 mg BID): 2
No Week 48 Partial Remission No Normalization ([1]; week 48, 39.5 mg BID): 11
Normalization Yes ([1]; week 48, 39.5 mg BID): 32
No Week 48 Partial Remission No Normalization ([2]; week 12, 23.7 mg BID): 10
No Week 48 Partial Remission Normalization ([2]; week 12, 23.7 mg BID): 8
Normalization Yes ([2]; week 12, 23.7 mg BID): 31
No Week 48 Partial Remission No Normalization ([2]; week 12, 39.5 mg BID): 10
No Week 48 Partial Remission Normalization ([2]; week 12, 39.5 mg BID): 7
No Week 48 Partial Remission No Normalization ([2]; week 24, 23.7 mg BID): 8
Normalization Yes ([2]; week 24, 23.7 mg BID): 30
Week 48 Partial Remission No Normalization ([2]; week 24, 23.7 mg BID): 33
No Week 48 Partial Remission No Normalization ([2]; week 48, 23.7 mg BID): 8
No Week 48 Partial Remission Normalization ([2]; week 48, 23.7 mg BID): 2
Normalization Yes ([2]; week 48, 23.7 mg BID): 27
No Week 48 Partial Remission No Normalization ([2]; week 48, 39.5 mg BID): 9
No Week 48 Partial Remission Normalization ([2]; week 48, 39.5 mg BID): 7
remission ([3]; 23.7 mg or 39.5 mg twice daily with MMF and reducing corticosteroid, 24 weeks and 48 weeks): successful complete or partial remission in a large number of patients
remission ([3]; 23.7 mg twice daily with MMF and reducing corticosteroid dose, 24 weeks): complete remission or partial remission in a large percentage of subjects
No Week 48 Partial Remission, No Early Drop or Normal [4, 5]: 3
Week 48 Partial Remission, No Early Drop or Normal [4, 5]: 2
No Week 48 Partial Remission, No Early Drop or Normal [4, 6]: 3
Week 48 Partial Remission, No Early Drop or Normal [4, 6]: 3
Early Drop or Normal No [4, 7]: 1
No Week 48 Partial Remission, No Early Drop or Normal [4, 7]: 1
Early Drop or Normal No ([4]; Early 25% reduction in UPCR or C3/C4 normalization, Week 24, 39.5 mg BID): 10
Early Drop or Normal No [4, 8]: 1
No Week 48 Partial Remission, Early Drop or Normal [4, 8]: 10
No Week 48 Partial Remission, No Early Drop or Normal [4, 8]: 1
No Week 48 Partial Remission, Early Drop or Normal ([4]; Early 25% reduction in UPCR or C3/C4 normalization, Week 48, 39.5 mg BID): 10
No Week 48 Partial Remission, No Early Drop or Normal [4, 9]: 3
Week 48 Partial Remission, No Early Drop or Normal [4, 9]: 2
Early Drop or Normal No [4, 10]: 7
No Week 48 Partial Remission, No Early Drop or Normal [4, 10]: 3
Week 48 Partial Remission, No Early Drop or Normal [4, 10]: 4
Early Drop or Normal No [4, 11]: 1
No Week 48 Partial Remission, No Early Drop or Normal [4, 11]: 1
Early Drop or Normal No ([4]; Early 30% reduction in UPCR or C3/C4 normalization, Week 24, 39.5 mg BID): 10
Early Drop or Normal No [4, 12]: 2
No Week 48 Partial Remission, Early Drop or Normal [4, 12]: 9
No Week 48 Partial Remission, No Early Drop or Normal [4, 12]: 2
Early Drop or Normal No ([4]; Early 30% reduction in UPCR or C3/C4 normalization, Week 48, 39.5 mg BID): 8
